Laboratory results taken from ChEMBL document CHEMBL6134873, “Identification of Novel Cyclobutane-Based Derivatives as Potent Acetyl-CoA Carboxylase Allosteric Inhibitors for Nonalcoholic Steatohepatitis Drug Discovery” (J Med Chem, 2025).
Values belong to the compound of their own block, whether it stands above or below them.

Key:
[1] = Inhibition of ACC2 in rat skeletal muscle using KH[14C]O3 as substrate measured after 7 mins in presence of ATP by liquid scintillation counter analysis
Acetyl-CoA carboxylase 1 = Acetyl-CoA carboxylase 1 (Homo sapiens, UniProt Q13085)
Description: Inhibition of recombinant human ACC1 using acetyl-Co A as substrate incubated for 60 mins in presence of ATP by ADP-Glo assay

Acetyl-CoA carboxylase 2 = Acetyl-CoA carboxylase 2 (Homo sapiens, UniProt O00763)
Description: Inhibition of recombinant human ACC2 using acetyl-Co A as substrate incubated for 60 mins in presence of ATP by ADP-Glo assay

[2] = Tmax in Sprague-Dawley rat at 3 mg/kg, po measured for 0.25 to 24 hrs by LC-MS/MS analysis; assay type: ADME, organism-based; conditions: in vivo, time 0.25-24 hrs
[3] = Cmax in Sprague-Dawley rat at 3 mg/kg, po measured for 0.25 to 24 hrs by LC-MS/MS analysis; assay type: ADME, organism-based; conditions: in vivo, time 0.25-24 hrs
[4] = AUC (0 to t) in Sprague-Dawley rat at 3 mg/kg, po measured for 0.25 to 24 hrs by LC-MS/MS analysis; assay type: ADME, organism-based; conditions: in vivo, time 0.25-24 hrs
[5] = MRT (0 to t) in Sprague-Dawley rat at 3 mg/kg, po measured for 0.25 to 24 hrs by LC-MS/MS analysis; assay type: ADME, organism-based; conditions: in vivo, time 0.25-24 hrs
[6] = Oral bioavailability in Sprague-Dawley rat at 3 mg/kg measured for 0.25 to 24 hrs by LC-MS/MS analysis; assay type: ADME, organism-based; conditions: in vivo, time 0.25-24 hrs
[7] = Half life in Sprague-Dawley rat at 1 mg/kg, iv measured for 0.25 to 24 hrs by LC-MS/MS analysis; assay type: ADME, organism-based; conditions: in vivo, time 0.25-24 hrs
[8] = AUC (0 to t) in Sprague-Dawley rat at 1 mg/kg, iv measured for 0.25 to 24 hrs by LC-MS/MS analysis; assay type: ADME, organism-based; conditions: in vivo, time 0.25-24 hrs
[9] = MRT (0 to t) in Sprague-Dawley rat at 1 mg/kg, iv measured for 0.25 to 24 hrs by LC-MS/MS analysis; assay type: ADME, organism-based; conditions: in vivo, time 0.25-24 hrs
[10] = Clearance in Sprague-Dawley rat at 1 mg/kg, iv measured for 0.25 to 24 hrs by LC-MS/MS analysis; assay type: ADME, organism-based; conditions: in vivo, time 0.25-24 hrs
[11] = Volume of distribution in Sprague-Dawley rat at 1 mg/kg, iv measured for 0.25 to 24 hrs by LC-MS/MS analysis; assay type: ADME, organism-based; conditions: in vivo, time 0.25-24 hrs
[12] = Half life in Sprague-Dawley rat at 3 mg/kg, po measured for 0.25 to 24 hrs by LC-MS/MS analysis; assay type: ADME, organism-based; conditions: in vivo, time 0.25-24 hrs
[13] = Biodistribution in liver of 12 hr-fasted male wild-type Sprague-Dawley rat at 3 mg/kg, po measured after 4 hrs by LC-MS/MS analysis; assay type: ADME, organism-based; conditions: in vivo
[14] = Biodistribution in 12 hr-fasted male wild-type Sprague-Dawley rat assessed as increase in ratio of drug concentration in liver/plasma at 3 mg/kg, po measured for 0.25 to 4 hrs by LC-MS/MS analysis; assay type: ADME, organism-based; conditions: in vivo, time 0.25-4 hrs
[15] = Inhibition of fatty acid synthesis in human HepG2 cells preincubated for 1.5 hrs followed by [14C] acetate addition measured after 1.5 hrs by liquid scintillation counter analysis; assay type: functional, cell-based
[16] = Protein binding in human plasma; assay type: ADME, cell-free; conditions: read-out: PPB (converted)
[17] = Protein binding in rat plasma; assay type: ADME, cell-free; conditions: read-out: PPB (converted)
[18] = Intrinsic clearance in human liver microsomes; assay type: ADME, Microsome; conditions: read-out: CLH
[19] = Intrinsic clearance in mouse liver microsomes; assay type: ADME, Microsome; conditions: read-out: CLH
[20] = Intrinsic clearance in rat liver microsomes; assay type: ADME, Microsome; conditions: read-out: CLH
[21] = Intrinsic clearance in dog liver microsomes; assay type: ADME, Canis lupus familiaris, Microsome; conditions: read-out: CLH
[22] = Intrinsic clearance in monkey liver microsomes; assay type: ADME, Macaca mulatta, Microsome; conditions: rhesus monkey, read-out: CLH
Cytochrome P450 1A2 = biological target: T1, Cytochrome P450 1A2 (Homo sapiens, UniProt P05177); experiment: Inhibition of CYP1A2 (unknown origin); assay type: ADME
T1 sequence (P05177 whole entry): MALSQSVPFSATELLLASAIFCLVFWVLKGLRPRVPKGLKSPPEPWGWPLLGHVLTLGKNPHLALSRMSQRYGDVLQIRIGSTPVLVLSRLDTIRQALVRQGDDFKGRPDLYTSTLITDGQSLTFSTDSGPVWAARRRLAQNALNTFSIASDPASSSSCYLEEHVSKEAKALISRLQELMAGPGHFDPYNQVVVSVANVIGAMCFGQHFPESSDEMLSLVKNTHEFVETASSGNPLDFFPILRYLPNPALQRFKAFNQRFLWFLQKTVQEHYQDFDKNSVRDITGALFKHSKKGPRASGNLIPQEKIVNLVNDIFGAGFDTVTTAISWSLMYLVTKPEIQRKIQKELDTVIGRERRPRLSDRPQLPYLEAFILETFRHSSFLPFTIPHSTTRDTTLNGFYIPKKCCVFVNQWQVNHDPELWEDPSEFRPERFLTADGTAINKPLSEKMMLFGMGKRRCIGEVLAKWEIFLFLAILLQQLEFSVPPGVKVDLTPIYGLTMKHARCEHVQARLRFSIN

Cytochrome P450 2B6 = biological target: T2, Cytochrome P450 2B6 (Homo sapiens, UniProt P20813); experiment: Inhibition of CYP2B6 (unknown origin); assay type: ADME
T2 sequence (P20813 whole entry): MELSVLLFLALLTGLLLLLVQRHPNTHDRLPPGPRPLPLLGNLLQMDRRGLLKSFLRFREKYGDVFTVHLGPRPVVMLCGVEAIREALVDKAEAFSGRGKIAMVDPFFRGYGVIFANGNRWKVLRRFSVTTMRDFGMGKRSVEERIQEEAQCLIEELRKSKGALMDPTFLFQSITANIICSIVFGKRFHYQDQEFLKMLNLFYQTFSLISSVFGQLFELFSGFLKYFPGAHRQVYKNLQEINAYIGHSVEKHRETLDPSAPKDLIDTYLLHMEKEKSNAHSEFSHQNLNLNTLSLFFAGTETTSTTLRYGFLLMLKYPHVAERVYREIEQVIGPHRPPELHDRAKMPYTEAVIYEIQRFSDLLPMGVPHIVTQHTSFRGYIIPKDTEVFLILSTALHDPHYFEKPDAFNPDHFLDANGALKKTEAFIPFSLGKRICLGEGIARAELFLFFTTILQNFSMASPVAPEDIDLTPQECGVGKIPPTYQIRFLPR

Cytochrome P450 2C8 = biological target: T3, Cytochrome P450 2C8 (Homo sapiens, UniProt P10632); experiment: Inhibition of CYP2C8 (unknown origin); assay type: ADME
T3 sequence (P10632 whole entry): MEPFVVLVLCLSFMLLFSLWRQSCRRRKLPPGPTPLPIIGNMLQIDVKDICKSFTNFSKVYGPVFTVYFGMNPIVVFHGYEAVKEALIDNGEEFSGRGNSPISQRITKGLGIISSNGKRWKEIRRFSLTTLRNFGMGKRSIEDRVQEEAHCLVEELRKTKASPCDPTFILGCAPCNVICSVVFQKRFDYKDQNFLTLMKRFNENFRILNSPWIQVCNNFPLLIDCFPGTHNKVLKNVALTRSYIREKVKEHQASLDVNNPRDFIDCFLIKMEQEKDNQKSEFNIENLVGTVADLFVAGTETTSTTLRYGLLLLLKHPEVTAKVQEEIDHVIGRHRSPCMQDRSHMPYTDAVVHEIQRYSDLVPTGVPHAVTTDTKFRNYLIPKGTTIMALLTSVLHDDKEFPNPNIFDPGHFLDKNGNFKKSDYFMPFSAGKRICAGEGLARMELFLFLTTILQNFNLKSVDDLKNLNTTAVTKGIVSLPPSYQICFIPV

Cytochrome P450 2C9 = Cytochrome P450 2C9 (Homo sapiens, UniProt P11712); experiment: Inhibition of CYP2C9 (unknown origin); assay type: ADME
Cytochrome P450 2C19 = Cytochrome P450 2C19 (Homo sapiens, UniProt P33261); experiment: Inhibition of CYP2C19 (unknown origin); assay type: ADME
Cytochrome P450 2D6 = Cytochrome P450 2D6 (Homo sapiens, UniProt P10635); experiment: Inhibition of CYP2D6 (unknown origin); assay type: ADME
Cytochrome P450 3A4 [23] = biological target: T4, Cytochrome P450 3A4 (Homo sapiens, UniProt P08684); experiment: Inhibition of CYP3A4 (unknown origin) using midazolam as substrate; assay type: ADME
Cytochrome P450 3A4 [24] = biological target: T4, Cytochrome P450 3A4; experiment: Inhibition of CYP3A4 (unknown origin) using testosterone as substrate; assay type: ADME
[25] = biological target: Voltage-gated inwardly rectifying potassium channel KCNH2 (Homo sapiens, UniProt Q12809); experiment: Inhibition of hERG; assay type: toxicity
Chain of Voltage-gated inwardly rectifying potassium channel KCNH2 (Q12809 whole entry): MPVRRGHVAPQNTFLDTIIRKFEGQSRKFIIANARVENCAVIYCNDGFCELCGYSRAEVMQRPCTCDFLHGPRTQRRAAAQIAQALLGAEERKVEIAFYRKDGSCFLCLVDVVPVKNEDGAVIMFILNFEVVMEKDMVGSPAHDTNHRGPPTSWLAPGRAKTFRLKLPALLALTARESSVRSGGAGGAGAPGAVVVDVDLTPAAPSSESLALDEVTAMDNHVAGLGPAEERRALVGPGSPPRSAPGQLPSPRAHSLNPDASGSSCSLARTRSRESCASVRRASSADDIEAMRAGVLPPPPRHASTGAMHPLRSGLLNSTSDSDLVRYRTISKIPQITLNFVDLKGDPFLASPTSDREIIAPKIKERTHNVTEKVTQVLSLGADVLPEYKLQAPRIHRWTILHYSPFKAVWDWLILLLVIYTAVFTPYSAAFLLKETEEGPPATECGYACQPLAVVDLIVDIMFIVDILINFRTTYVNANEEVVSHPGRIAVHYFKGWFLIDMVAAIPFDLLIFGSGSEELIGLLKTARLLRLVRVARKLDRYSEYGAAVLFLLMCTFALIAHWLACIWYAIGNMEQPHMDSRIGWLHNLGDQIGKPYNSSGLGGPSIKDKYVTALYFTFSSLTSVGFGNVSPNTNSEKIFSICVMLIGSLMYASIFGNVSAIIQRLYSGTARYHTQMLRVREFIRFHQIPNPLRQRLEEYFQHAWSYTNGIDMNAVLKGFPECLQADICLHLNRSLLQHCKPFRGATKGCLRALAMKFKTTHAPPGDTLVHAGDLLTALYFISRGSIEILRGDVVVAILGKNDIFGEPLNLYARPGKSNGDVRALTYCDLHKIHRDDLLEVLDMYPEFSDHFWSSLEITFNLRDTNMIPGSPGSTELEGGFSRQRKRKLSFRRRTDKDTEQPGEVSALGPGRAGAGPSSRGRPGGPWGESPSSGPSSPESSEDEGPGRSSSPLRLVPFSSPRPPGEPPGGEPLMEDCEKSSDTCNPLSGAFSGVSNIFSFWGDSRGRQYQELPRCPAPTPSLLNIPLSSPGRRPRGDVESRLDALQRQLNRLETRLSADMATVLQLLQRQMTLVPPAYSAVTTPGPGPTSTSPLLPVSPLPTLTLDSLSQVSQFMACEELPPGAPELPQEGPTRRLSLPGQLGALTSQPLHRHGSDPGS

Chain of Acetyl-CoA carboxylase 2 (O00763 whole entry): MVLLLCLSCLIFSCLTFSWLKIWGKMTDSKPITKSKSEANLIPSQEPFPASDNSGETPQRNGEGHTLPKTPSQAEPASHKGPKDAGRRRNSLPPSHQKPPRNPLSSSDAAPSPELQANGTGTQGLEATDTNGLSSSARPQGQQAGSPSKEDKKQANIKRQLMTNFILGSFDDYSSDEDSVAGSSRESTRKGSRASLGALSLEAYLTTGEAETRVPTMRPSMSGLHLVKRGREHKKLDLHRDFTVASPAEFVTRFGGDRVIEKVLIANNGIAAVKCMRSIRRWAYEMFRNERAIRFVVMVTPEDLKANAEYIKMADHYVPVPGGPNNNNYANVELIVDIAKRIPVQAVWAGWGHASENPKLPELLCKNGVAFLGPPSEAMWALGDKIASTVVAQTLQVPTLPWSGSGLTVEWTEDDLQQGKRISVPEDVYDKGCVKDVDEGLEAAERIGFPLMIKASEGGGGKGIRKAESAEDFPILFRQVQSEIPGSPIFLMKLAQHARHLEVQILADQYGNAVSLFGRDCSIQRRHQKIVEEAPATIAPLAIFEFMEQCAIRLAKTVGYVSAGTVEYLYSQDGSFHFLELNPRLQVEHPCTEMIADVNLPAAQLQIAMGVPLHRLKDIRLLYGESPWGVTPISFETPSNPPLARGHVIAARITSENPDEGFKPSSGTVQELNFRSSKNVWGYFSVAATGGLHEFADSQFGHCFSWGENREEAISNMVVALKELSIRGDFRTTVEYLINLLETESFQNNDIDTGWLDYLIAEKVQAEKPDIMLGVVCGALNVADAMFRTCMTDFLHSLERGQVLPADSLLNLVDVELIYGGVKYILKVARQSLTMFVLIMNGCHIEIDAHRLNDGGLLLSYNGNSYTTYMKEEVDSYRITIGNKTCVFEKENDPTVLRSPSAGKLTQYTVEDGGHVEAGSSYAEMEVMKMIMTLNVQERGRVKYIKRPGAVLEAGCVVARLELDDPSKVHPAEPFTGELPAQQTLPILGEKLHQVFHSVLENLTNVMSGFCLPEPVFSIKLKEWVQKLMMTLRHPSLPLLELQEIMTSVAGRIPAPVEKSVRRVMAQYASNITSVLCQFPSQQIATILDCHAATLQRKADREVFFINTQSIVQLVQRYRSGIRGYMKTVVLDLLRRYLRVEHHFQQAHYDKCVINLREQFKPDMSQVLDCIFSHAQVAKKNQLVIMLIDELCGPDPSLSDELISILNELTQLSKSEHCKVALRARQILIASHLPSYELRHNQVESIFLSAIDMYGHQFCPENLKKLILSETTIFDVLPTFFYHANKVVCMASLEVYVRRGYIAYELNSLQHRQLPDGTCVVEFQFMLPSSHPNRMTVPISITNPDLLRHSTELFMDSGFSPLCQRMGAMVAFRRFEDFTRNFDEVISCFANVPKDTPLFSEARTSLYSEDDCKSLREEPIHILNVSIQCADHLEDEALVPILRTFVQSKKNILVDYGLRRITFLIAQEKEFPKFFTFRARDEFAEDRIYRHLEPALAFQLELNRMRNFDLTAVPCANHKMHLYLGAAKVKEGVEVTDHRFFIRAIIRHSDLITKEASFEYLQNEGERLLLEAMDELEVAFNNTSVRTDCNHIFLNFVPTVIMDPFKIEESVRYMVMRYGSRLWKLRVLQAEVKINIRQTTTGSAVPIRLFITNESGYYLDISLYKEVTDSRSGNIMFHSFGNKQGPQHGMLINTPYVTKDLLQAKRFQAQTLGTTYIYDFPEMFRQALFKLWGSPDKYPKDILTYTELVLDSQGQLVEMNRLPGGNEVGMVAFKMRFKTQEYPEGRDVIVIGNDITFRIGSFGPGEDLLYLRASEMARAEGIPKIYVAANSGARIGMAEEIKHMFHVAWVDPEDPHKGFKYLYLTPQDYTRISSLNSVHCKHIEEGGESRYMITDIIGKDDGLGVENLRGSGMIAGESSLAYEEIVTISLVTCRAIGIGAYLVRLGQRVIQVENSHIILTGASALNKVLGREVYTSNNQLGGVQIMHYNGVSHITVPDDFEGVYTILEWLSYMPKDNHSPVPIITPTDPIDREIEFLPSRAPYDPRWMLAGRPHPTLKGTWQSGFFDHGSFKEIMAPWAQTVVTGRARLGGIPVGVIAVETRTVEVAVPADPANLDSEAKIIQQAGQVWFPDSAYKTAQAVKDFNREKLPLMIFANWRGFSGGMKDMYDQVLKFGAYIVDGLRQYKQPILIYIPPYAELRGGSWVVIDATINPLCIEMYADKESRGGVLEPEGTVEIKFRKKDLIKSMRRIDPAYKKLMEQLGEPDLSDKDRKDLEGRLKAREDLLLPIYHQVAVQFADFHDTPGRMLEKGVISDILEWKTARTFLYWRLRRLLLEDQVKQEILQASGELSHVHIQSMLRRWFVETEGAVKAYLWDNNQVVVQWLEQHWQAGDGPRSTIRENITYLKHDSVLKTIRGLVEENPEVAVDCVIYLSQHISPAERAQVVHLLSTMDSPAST
T4 sequence (P08684 whole entry): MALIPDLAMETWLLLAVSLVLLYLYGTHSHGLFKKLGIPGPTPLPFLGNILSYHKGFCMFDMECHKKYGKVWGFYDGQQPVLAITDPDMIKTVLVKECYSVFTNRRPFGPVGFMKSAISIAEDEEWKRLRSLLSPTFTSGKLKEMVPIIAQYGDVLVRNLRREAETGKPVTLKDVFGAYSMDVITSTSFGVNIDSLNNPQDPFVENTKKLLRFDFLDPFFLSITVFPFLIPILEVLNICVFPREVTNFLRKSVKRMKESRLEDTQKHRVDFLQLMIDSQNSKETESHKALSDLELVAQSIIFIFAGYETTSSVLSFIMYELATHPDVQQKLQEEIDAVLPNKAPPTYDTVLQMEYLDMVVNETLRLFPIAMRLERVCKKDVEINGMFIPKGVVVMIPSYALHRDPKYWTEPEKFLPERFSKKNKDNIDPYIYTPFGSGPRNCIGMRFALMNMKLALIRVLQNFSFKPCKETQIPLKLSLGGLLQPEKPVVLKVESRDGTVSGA
Chain of Cytochrome P450 2C19 (P33261 whole entry): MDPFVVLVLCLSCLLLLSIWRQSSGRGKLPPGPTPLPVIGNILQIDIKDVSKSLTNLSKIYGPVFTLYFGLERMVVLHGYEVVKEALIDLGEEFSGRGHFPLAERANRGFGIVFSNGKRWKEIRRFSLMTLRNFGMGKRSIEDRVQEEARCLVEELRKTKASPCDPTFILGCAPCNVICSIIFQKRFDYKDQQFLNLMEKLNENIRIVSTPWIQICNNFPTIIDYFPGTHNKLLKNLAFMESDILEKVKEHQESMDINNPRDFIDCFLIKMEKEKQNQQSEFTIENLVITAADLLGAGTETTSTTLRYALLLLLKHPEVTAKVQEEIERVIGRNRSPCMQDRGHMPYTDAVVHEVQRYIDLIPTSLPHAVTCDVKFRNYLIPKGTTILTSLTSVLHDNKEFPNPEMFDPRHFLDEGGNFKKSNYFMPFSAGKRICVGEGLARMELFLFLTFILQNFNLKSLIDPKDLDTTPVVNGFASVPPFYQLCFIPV
Chain of Cytochrome P450 2D6 (P10635 whole entry): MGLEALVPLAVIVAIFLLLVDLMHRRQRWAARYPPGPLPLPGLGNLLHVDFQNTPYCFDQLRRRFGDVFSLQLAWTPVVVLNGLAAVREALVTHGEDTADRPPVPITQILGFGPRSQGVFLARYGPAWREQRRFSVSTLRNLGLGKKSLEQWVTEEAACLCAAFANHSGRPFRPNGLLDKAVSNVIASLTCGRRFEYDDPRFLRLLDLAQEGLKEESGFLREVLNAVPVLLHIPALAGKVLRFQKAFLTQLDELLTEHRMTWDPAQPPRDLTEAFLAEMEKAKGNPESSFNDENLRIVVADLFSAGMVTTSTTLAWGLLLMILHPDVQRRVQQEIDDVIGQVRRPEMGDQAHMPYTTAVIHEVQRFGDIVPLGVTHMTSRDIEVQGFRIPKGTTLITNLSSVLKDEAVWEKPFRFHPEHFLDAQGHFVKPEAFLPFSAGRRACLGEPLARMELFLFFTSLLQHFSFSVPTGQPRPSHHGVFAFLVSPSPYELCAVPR

SMILES: O=C(c1c2ccccc2cc2ccccc12)N1CCC(N2CCC[C@@H](C(=O)N3CCOCC3)C2)CC1
- IC50 [1]: 61 nM

SMILES: COc1ccccc1[C@H](Cn1c(=O)n(C2CN(C(=O)N3CCOCC3)C2)c(=O)c2c(C)c(-c3ncco3)sc21)OC1CCOCC1
- IC50 (Acetyl-CoA carboxylase 1): 1.1 nM
- IC50 (Acetyl-CoA carboxylase 2): 9.14 nM

SMILES: COc1ccccc1[C@H](Cn1c(=O)n(C2CN(C(=O)c3ncc[nH]3)C2)c(=O)c2c(C)c(-c3ncco3)sc21)OC1CCOCC1
- IC50 (Acetyl-CoA carboxylase 1): 1.52 nM
- IC50 (Acetyl-CoA carboxylase 2): 6.18 nM

SMILES: COc1ccccc1[C@H](Cn1c(=O)n(C2CN(C(=O)c3ccccn3)C2)c(=O)c2c(C)c(-c3ncco3)sc21)OC1CCOCC1
- IC50 (Acetyl-CoA carboxylase 1): 2.1 nM
- IC50 (Acetyl-CoA carboxylase 2): 6.42 nM

SMILES: COc1ccccc1[C@H](Cn1c(=O)n(-c2c(C)ccn3ccnc23)c(=O)c2c(C)c(-c3ncco3)sc21)OC1CCOCC1
- IC50 (Acetyl-CoA carboxylase 1): 52.9 nM

SMILES: COc1ccccc1[C@H](Cn1c(=O)n([C@H]2C[C@](C)(C(N)=O)C2)c(=O)c2c(C)c(-c3ncco3)sc21)OC1CCOCC1
- IC50 (Acetyl-CoA carboxylase 1): 1.05 nM

SMILES: COc1ccccc1[C@H](Cn1c(=O)n([C@H]2C[C@@H](C(=O)O)C2)c(=O)c2c(C)c(-c3ncco3)sc21)OC1CCOCC1
- Tmax [2]: 36 min
- Cmax [3]: 21.3 ng/mL
- AUC(0-t) [4]: 13.8 ng·h/mL
- MRT last [5]: 24 min
- bioavailability [6]: 5.7%
- half-life [7]: 12 min
- AUC(0-t) [8]: 80.8 ng·h/mL
- MRT last [9]: 6 min
- clearance [10]: 180 mL/min/kg
- Vd [11]: 2.6 L/kg
- half-life [12]: 24 min
- IC50 (Acetyl-CoA carboxylase 1): 0.79 nM
- IC50 (Acetyl-CoA carboxylase 2): 5.13 nM

SMILES: COc1ccccc1[C@H](Cn1c(=O)n(C2CN(C(=O)c3ccccc3)C2)c(=O)c2c(C)c(-c3ncco3)sc21)OC1CCOCC1
- IC50 (Acetyl-CoA carboxylase 1): 5.36 nM

SMILES: COc1ccccc1[C@H](Cn1c(=O)n(C(C)(C)C(=O)O)c(=O)c2c(C)c(-c3ncco3)sc21)OC1CCOCC1 [FIRSOCOSTAT]
- Tmax [2]: 6 min
- Cmax [3]: 213 ng/mL
- AUC(0-t) [4]: 628 ng·h/mL
- MRT last [5]: 246 min
- bioavailability [6]: 51.1%
- half-life [7]: 426 min
- AUC(0-t) [8]: 409 ng·h/mL
- MRT last [9]: 102 min
- clearance [10]: 33.3 mL/min/kg
- Vd [11]: 21.4 L/kg
- Drug uptake [13]: Active
- Drug uptake [14]: Active
- IC50 [15]: 4.8 nM
- fraction unbound [16]: 0.015
- fraction unbound [17]: 0.014
- CLint scaled [18]: 6 mL/min/kg
- CLint scaled [19]: < 38 mL/min/kg
- CLint scaled [20]: 4.3 mL/min/kg
- CLint scaled [21]: 7.2 mL/min/kg
- CLint scaled [22]: < 13 mL/min/kg
- IC50 (Cytochrome P450 1A2): > 30000 nM
- IC50 (Cytochrome P450 2B6): > 30000 nM
- IC50 (Cytochrome P450 2C8): > 30000 nM
- IC50 (Cytochrome P450 2C9): > 30000 nM
- IC50 (Cytochrome P450 2C19): > 30000 nM
- IC50 (Cytochrome P450 2D6): > 30000 nM
- IC50 (Cytochrome P450 3A4 [23]): > 30000 nM
- IC50 (Cytochrome P450 3A4 [24]): > 30000 nM
- IC50 [25]: > 30000 nM
- IC50 (Acetyl-CoA carboxylase 1): 0.49 nM
- IC50 (Acetyl-CoA carboxylase 2): 5.14 nM

Further compounds by falling IC50 (Acetyl-CoA carboxylase 1), results first:

- IC50 (Acetyl-CoA carboxylase 1): 12.1 nM
SMILES: COc1ccccc1[C@H](Cn1c(=O)n(C2CN(C(=O)N3CC(C)(C(=O)O)C3)C2)c(=O)c2c(C)c(-c3ncco3)sc21)OC1CCOCC1

- IC50 (Acetyl-CoA carboxylase 1): 9.47 nM
SMILES: COc1ccccc1[C@H](Cn1c(=O)n(C2CN(C(=O)N3CC(C)(O)C3)C2)c(=O)c2c(C)c(-c3ncco3)sc21)OC1CCOCC1

- IC50 (Acetyl-CoA carboxylase 1): 9.42 nM
SMILES: COc1ccccc1[C@H](Cn1c(=O)n(C2CC(F)(F)C2)c(=O)c2c(C)c(-c3ncco3)sc21)OC1CCOCC1

- IC50 (Acetyl-CoA carboxylase 1): 1.37 nM
- IC50 (Acetyl-CoA carboxylase 2): 16.5 nM
SMILES: COc1ccccc1[C@H](Cn1c(=O)n([C@H]2C[C@](C)(C(=O)O)C2)c(=O)c2c(C)c(-c3ncco3)sc21)OC1CCOCC1

- IC50 (Acetyl-CoA carboxylase 1): 0.95 nM
SMILES: COc1ccccc1[C@H](Cn1c(=O)n(C2CN(CC(F)(F)F)C2)c(=O)c2c(C)c(-c3ncco3)sc21)OC1CCOCC1

- IC50 (Acetyl-CoA carboxylase 1): 0.85 nM
SMILES: COc1ccccc1[C@H](Cn1c(=O)n(CC2(C(=O)O)CC2)c(=O)c2c(C)c(-c3ncco3)sc21)OC1CCOCC1
